Measured values taken from patent US11198699B2 (ALIGOS THERAPEUTICS, INC., priority 2019, dated 2021).

What was measured:
[1] = biological target: PRMT5/MEP50 (Homo sapiens (Human), UniProt O14744); experiment: PRMT5/MEP50 enzyme inhibition assay, Assay 2 (384-well, MALDI mass spectrometry, histone H4 1-21 peptide); type: biochemical; conditions: 1 μM SAM, 0.1 μM histone H4 1-21 peptide, 18-hour incubation at rt
Method: Compounds were tested for inhibition of methyltransferase activity in 384-well plate assay format using mass spectrometry technology. In this enzyme inhibition assay, compounds were tested in a 11-dose IC50 mode with 3-serial dilution, in duplicate, starting at 1, 10, or 100 μM. Reactions were carried out at 1 μM SAM and 0.1 μM histone H4 1-21 peptide as substrates for methyl transfer. Following an 18-hour incubation at rt, the reaction was stopped with 0.5% formic acid. Products of the reaction were captured while unreacted substrates were washed away, prior to MALDI mass spectrometry detection and analysis. Percent enzyme activity was calculated based on no inhibitor DMSO control as 100% activity. EC50 values were determined in GraphPad Prism 8 using the [inhibitor] vs. response—Variable slope (four parameters) function.
Compounds of Formula (I) show activity in this assay. A value of ‘A’ in the table below indicates an IC50 of <1 nM, a value of ‘B’ indicates an IC50≥1 nM to ≤100 nM, and a value of ‘C’ indicates an IC50 value of >100 nM.

[2] = test system: A549 lung carcinoma cells; experiment: Cell proliferation assay, A549 (CellTiter-Glo, 7 days); type: cell-based; conditions: A549, 7 days, CellTiter-Glo 2.0
Method: (§1) HepG2 hepatoma cells (ATCC, HB-8065) were maintained in DMEM with high glucose (Lonza, 12-914F) supplemented with 10% fetal bovine serum (FBS; Biowest, S181B-500) and 2 mM L-glutamine (Biowest, X0551-100) at 37° C. and 5% CO2. A549 lung carcinoma cells (ATCC, CCL-185) were maintained in F-12K medium (ThermoFisher 21127030) supplemented with 10% FBS at 37° C. and 5% CO2. Exponentially growing HepG2 or A549 were plated in white, clear-bottom 96-well plates (Corning, 3903) at a cell density of 2000 (HepG2) or 350 (A549) cells per well in 199 μL of HepG2 medium. Next, 1 μL of a 5-fold 9-point dilution series of test compound in DMSO was added to the different wells. Cells were incubated at 37° C. 5% CO2 for 7 days. Cell viability was assessed on day 7 with the CellTiter-Glo 2.0 Cell Viability assay kit (Promega, G9243) to quantify the intracellular amounts of ATP: first, 100 μL of cell culture medium was removed from each well, next 100 μL of CellTiter-Glo® 2.0 Reagent was added and plates were shaken for 2 minutes on an orbital shaker. After 10 minutes stabilization at room temperature, read-out was performed on a ThermoFisher VarioSkan Lux plate reader. Counts were normalized to DMSO control (0% inhibition) and the cytotoxic control (100% inhibition) and EC50 values were determined in GraphPad Prism 8 using the [Agonist] vs. response—Variable slope (four parameters) function.
(§2) As shown by the data of Table 2, compounds of Formula (I) have activity in this assay. A value of ‘A’ in the table below indicates an EC50 of <20 nM, a value of ‘B’ indicates an EC50≥20 nM to <100 nM, a value of ‘C’ indicates an EC50 value of EC50≥100 nM to <1000 nM and a value of ‘D’ indicates an EC50≥1000 nM

[3] = test system: HepG2 hepatoma cells; experiment: Cell proliferation assay, HepG2 (CellTiter-Glo, 7 days); type: cell-based; conditions: HepG2, 7 days, CellTiter-Glo 2.0
Method: as §1, §2

PRMT5/MEP50, sequence (O14744 whole entry): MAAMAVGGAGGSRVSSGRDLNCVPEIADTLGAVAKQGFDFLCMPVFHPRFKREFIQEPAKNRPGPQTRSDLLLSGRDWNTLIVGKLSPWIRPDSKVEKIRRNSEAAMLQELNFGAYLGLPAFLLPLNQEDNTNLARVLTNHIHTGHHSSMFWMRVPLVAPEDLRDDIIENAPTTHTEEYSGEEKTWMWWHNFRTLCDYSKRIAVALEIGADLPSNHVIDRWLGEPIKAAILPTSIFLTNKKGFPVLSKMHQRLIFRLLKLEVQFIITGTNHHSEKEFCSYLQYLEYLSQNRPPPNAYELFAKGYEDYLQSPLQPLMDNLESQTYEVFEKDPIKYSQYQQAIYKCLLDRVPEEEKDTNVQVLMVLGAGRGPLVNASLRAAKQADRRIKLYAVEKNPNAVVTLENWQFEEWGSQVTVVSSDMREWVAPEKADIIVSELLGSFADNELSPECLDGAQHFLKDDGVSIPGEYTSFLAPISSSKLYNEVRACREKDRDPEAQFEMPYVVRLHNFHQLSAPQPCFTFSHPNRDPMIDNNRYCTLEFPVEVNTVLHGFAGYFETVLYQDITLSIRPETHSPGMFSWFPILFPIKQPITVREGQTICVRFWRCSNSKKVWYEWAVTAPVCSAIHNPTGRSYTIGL
PRMT5/MEP50, sequence (Q9BQA1 whole entry partner): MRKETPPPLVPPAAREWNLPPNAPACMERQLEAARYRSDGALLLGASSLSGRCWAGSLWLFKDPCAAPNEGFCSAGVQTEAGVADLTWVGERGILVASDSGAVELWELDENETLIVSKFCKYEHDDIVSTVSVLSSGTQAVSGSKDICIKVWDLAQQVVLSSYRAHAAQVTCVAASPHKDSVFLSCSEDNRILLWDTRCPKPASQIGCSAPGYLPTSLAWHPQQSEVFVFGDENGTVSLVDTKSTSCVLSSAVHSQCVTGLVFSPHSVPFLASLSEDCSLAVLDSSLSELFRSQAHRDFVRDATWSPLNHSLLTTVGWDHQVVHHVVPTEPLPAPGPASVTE

Row | SMILES | IC50 [1] [nM] | EC50 [2] [nM] | EC50 [3] [nM] | EC50 ([2]; Homo sapiens, A549, 168 h) [nM] | EC50 ([3]; Homo sapiens, 168 h) [nM]
1 | Cc1cnc2cc(OC[C@@]34C[C@@H]3[C@@H](n3ccc5c(N)ncnc53)[C@H](O)[C@@H]4O)ccn12 [Compound 16] | < 1 | ≥ 1000 | ≥ 1000 | – | –
2 | C[C@]1(CCc2ccc3cc(C#N)c(N)nc3c2)C[C@@H](n2ccc3c(N)ncnc32)[C@H](O)[C@@H]1O [Compound 27] | < 1 | 20 to 100 | 20 to 100 | – | –
3 | N#C[C@]1(CCc2cc(F)c3cc(Cl)c(N)nc3c2)C[C@@H](n2ccc3c(N)ncnc32)[C@H](O)[C@@H]1O [Compound 44, (1S,2R,3S,4R)-1-(2-(2-amino-3-chloro-5-fluoroquinolin-7-yl)ethyl)-4-(4-amino-7H-pyrrolo[2,3-d]pyrimidin-7-yl)-2,3-dihydroxycyclopentane-1-carbonitrile] | < 1 | – | – | 20 to 100 | 100 to 1000
4 | C[C@]1(CCc2ccc3ccc(N)nc3n2)C[C@@H](n2ccc3c(N)ncnc32)[C@H](O)[C@@H]1O [Compound 24] | < 1 | 20 to 100 | 20 to 100 | – | –
5 | CCCCCOC(=O)Nc1ccc2cc(CC[C@@]3(C)C[C@@H](n4ccc5c(N)ncnc54)[C@H](O)[C@@H]3O)ccc2n1 [Compound 20-A] | > 100 | – | – | 100 to 1000 | 100 to 1000
6 | C[C@]1(CCc2ccc3ccc(N)nc3c2)C[C@@H](c2ccc3c(N)ncnn23)[C@H](O)[C@@H]1O [Compound 48] | < 1 | – | – | < 20 | < 20
7 | NC(=O)[C@]1(CCc2cc(F)c3cc(Cl)c(N)nc3c2)C[C@@H](n2ccc3c(N)ncnc32)[C@H](O)[C@@H]1O [Compound 45, (1R,2R,3S,4R)-1-(2-(2-amino-3-chloro-5-fluoroquinolin-7-yl)ethyl)-4-(4-amino-7H-pyrrolo[2,3-d]pyrimidin-7-yl)-2,3-dihydroxycyclopentane-1-carboxamide] | < 1 | – | – | 100 to 1000 | 100 to 1000
8 | C[C@]1(CCc2ccc3cc(Br)c(N)nc3c2)C[C@@H](n2ccc3c(N)nc(Cl)nc32)[C@H](O)[C@@H]1O [Compound 54] | < 1 | – | – | < 20 | < 20
9 | Nc1ccc2ccc(CC[C@@]34CC3[C@@H](n3ccc5c(N)ncnc53)[C@H](O)[C@@H]4O)nc2n1 (stereo partly drawn) [Compound 22, (1R,2R,3S,4R)-1-[2-(7-amino-1,8-naphthyridin-2-yl)ethyl]-4-(4-aminopyrrolo[2,3-d]pyrimidin-7-yl)bicyclo[3.1.0]hexane-2,3-diol] | < 1 | – | – | 100 to 1000 | 100 to 1000
10 | C=C[C@]1(CCc2cc(F)c3cc(Cl)c(N)nc3c2)C[C@@H](n2ccc3c(N)ncnc32)[C@H](O)[C@@H]1O [Compound 51] | < 1 | – | – | < 20 | < 20
11 | CC(C)C(=O)O[C@H]1[C@H](n2ccc3c(N)ncnc32)[C@H]2C[C@@]2(CCc2ccc3nc(N)ccc3c2)[C@H]1OC(=O)C(C)C [Compound 25-A, (1R,2R,3S,4R,5S)-4-(4-amino-7H-pyrrolo[2,3-d]pyrimidin-7-yl)-1-(2-(2-aminoquinolin-6-yl)ethyl)bicyclo[3.1.0]hexane-2,3-diyl bis(2-methylpropanoate)] | > 100 | – | – | ≥ 1000 | ≥ 1000
12 | C[C@]1(CCc2cc(F)c3cc(Cl)c(N)nc3c2)C[C@@H](n2ccc3c(N)nccc32)[C@H](O)[C@@H]1O [Compound 39, (1S,2R,3S,5R)-5-(4-amino-1H-pyrrolo[3,2-c]pyridin-1-yl)-3-(2-(2-amino-3-chloro-5-fluoroquinolin-7-yl)ethyl)-3-methylcyclopentane-1,2-diol] | < 1 | – | – | 20 to 100 | 20 to 100
13 | C[C@]1(CCc2cc3nc(N)ccc3c(F)c2F)C[C@@H](n2ccc3c(N)ncnc32)[C@H](O)[C@@H]1O [Compound 41, (1S,2R,3S,5R)-3-(2-(2-amino-5,6-difluoroquinolin-7-yl)ethyl)-5-(4-amino-7H-pyrrolo[2,3-d]pyrimidin-7-yl)-3-methylcyclopentane-1,2-diol] | < 1 | – | – | < 20 | < 20
14 | C[C@]1(CCc2ccc3cc(Cl)c(N)nc3c2)C[C@@H](n2ccc3c(N)ncc(F)c32)[C@H](O)[C@@H]1O [Compound 49] | < 1 | – | – | < 20 | < 20
15 | CCCCCOC(=O)Nc1ccc2ccc(CC[C@@]3(C)C[C@@H](n4ccc5c(N)ncnc54)[C@H](O)[C@@H]3O)cc2n1 [Compound 20, pentyl N-[7-[2-[(1S,2R,3S,4R)-4-(4-aminopyrrolo[2,3-d]pyrimidin-7-yl)-2,3-dihydroxy-1-methyl-cyclopentyl]ethyl]-2-quinolyl]carbamate] | 1 to 100 | – | – | 20 to 100 | < 20
16 | C[C@]1(CCc2cc(F)c3cc(Cl)c(N)nc3c2)C[C@@H](n2ccc3c(N)ncnc32)[C@H](O)[C@@H]1O [Compound 30, (1S,2R,3S,5R)-3-(2-(2-amino-3-chloro-5-fluoroquinolin-7-yl)ethyl)-5-(4-amino-7H-pyrrolo[2,3-d]pyrimidin-7-yl)-3-methylcyclopentane-1,2-diol] | < 1 | – | – | < 20 | < 20
17 | Nc1nc2cc(CC[C@@]34C[C@@H]3[C@@H](n3ccc5c(N)ncnc53)[C@H](O)[C@@H]4O)ccc2cc1Cl [Compound 19, (1R,2R,3S,4R,5S)-1-[2-(2-amino-3-chloro-7-quinolyl)ethyl]-4-(4-aminopyrrolo[2,3-d]pyrimidin-7-yl)bicyclo[3.1.0]hexane-2,3-diol] | < 1 | – | – | < 20 | < 20
18 | Nc1nc2cc(CC[C@@]3(CO)C[C@@H](n4ccc5c(N)ncnc54)[C@H](O)[C@@H]3O)cc(F)c2cc1Cl [Compound 40, (1S,2R,3S,5R)-3-(2-(2-amino-3-chloro-5-fluoroquinolin-7-yl)ethyl)-5-(4-amino-7H-pyrrolo[2,3-d]pyrimidin-7-yl)-3-(hydroxymethyl)cyclopentane-1,2-diol] | < 1 | – | – | < 20 | < 20
19 | Nc1nc2cc(OC[C@@H]3[C@@H](O)[C@@H](O)C4(n5ccc6c(N)ncnc65)C[C@@H]34)ccc2cc1Br (mixture of isomers) [Compound 17, rac-(2S,3R,4R,5S)-4-[(2-amino-3-bromo-7-quinolyl)oxymethyl]-1-(4-aminopyrrolo[2,3-d]pyrimidin-7-yl)bicyclo[3.1.0]hexane-2,3-diol] | > 100 | – | – | ≥ 1000 | ≥ 1000
20 | Nc1nc2cc(OC[C@@]34C[C@@H]3[C@@H](n3ccc5c(N)ncnc53)[C@H](O)[C@@H]4O)ccc2cc1Br [Compound 15, (1R,2R,3S,4R,5S)-1-[(2-amino-3-bromo-7-quinolyl)oxymethyl]-4-(4-aminopyrrolo[2,3-d]pyrimidin-7-yl)bicyclo[3.1.0]hexane-2,3-diol] | < 1 | – | – | 100 to 1000 | 100 to 1000
